Laboratory results reported in patent US8163939B2, “Ascorbic acid derivative or salt thereof, production method thereof, and cosmetic” (Seikwa Kasei Company, Limited, priority 2007, dated 2012).

What was measured:
[1] = system: Normal human dermal fibroblasts; assay: Collagen production of human fibroblast (Sircol collagen assay, 100 μM, 48 hours); format: cell-based; settings: cultured 48 hours; for Collagen production promoting effect (collagen production amount, % of control group): N=4; for activity at 100 µM: Homo sapiens, Fibroblast, N=4, read-out: Collagen production promoting effect (collagen production amount, % of control group)
Procedure: Normal human dermal fibroblasts were regulated with a 10% (v/v) fetal bovine serum (manufactured by Roshe Diagnostics)-containing D-MEM so as to give a cell density of 2.5×10^4 cells/well, then, pre-incubation for 24 hours was performed on a 96-well plate. After the medium was removed, a sample regulated with a 5% (v/v) fetal bovine serum-containing D-MEM to a concentration of 100 μM was added to each well, then, cultured for 48 hours under 37° C. and 5% CO2. After completion of culturing, the amount of free collagen was measured using Sircol collagen assay kit (manufactured by Biocolor). The measurement was carried out at N=4.
The collagen production amount in measuring a sample at a concentration of 100 μM was compared with the control group, and the results thereof (% value when the control group is 100%) are shown in Tables 44 and 45 based on the following standard.

B16 melanoma 4A5 cell = assay: Whitening test: theophylline-induced melanine production in B16 melanoma 4A5 cells; format: cell-based, mouse; settings: for Whitening effect (melanine production suppressing rate): sample at a concentration of 100 μM or less, theophylline-induced melanine production, 3 days culture, N=4;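 as to Whitening effect (melanine production suppressing rate): grades: ± under 20% + 20-40% ++ 40-70% +++ 70-100% suppression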
Procedure: As a test for a whitening effect, evaluation of the action of B16 melanoma 4A5 cell on theophylline-induced melanine production was carried out on an ascorbic acid derivative of the present invention, according to the following procedure. The same evaluation was carried out also on ascorbic acid, known compounds: ascorbic acid salts, and ascorbic acid derivatives, as comparison. The results are shown in Tables 38 to 40. • (1) B16 mouse melanoma 4A5 strain was sowed onto a 48-well plate at a cell density of 2.0×10^4 cells/well. • (2) Culturing was performed for 24 hours with Dulbecco's Modified Eagle's medium (manufactured by SIGMA. Hereinafter, abbreviated as D-MEM) containing 10% fetal bovine serum (manufactured by Roshe Diagnostics). Then, it was changed to 0.2 mM theophylline and a 10% fetal bovine serum-containing D-MEM which contains a sample of given concentration. • (3) After culturing for 3 days in the co-existence of a sample, the medium was removed using an aspirator. Then, after distilled water was added, cells were broken by an ultrasonic wave. • (4) Thereafter, the amount of protein was determined using BCA protein assay kit (manufactured by PIERCE), and the produced amount of melanine was measured by an alkali solubilizing method. To the cell-destructed solution was added sodium hydroxide so as to give a final concentration of 2N and the mixture was dissolved by heating (60° C., 15 minutes), then, the absorbance at 450 nm was measured using a micro plate reader. The melanine amount was calculated from a calibration curve made using synthetic melanine (SIGMA) as a standard. The melanine amount per unit protein was calculated by dividing the melanine amount by the protein amount. • (5) The melanine production suppressing rate was calculated according to the following formula. Melanine production suppressing rate (%)=[1−(A−B)/(C−B)]×100 [wherein, A represents the melanine amount per unit protein (g/g) in adding a sample, B represents the melanine amount per unit protein (g/g) in the normal group, and C represents the melanine amount per unit protein (g/g) in the control group.]
In the following Tables, the melanine production suppressing rate in measuring a sample at a concentration of 100 μM or less is expressed as described below. The measurement was carried out at N=4.

Compound: CCCCOC1=C(OCC(O)CO)[C@@H]([C@@H](O)CO)OC1=O (some centres unmarked) [Example 57]
- Collagen production promoting effect (collagen production amount, % of control group) [1]: + (100 to 200%:+)
- Whitening effect (melanine production suppressing rate) (B16 melanoma 4A5 cell): + (20 to 40%:+)

Compound: CCCCCCCCOCC(O)COC1=C(OCCCCCCCC)C(=O)O[C@@H]1[C@@H](O)CO (some centres unmarked) [Example 73]
- Whitening effect (melanine production suppressing rate) (B16 melanoma 4A5 cell): + (20 to 40%:+)

Compound: CCCCCCCCC(O)COC1=C(OCC(O)CO)C(=O)OC1C(O)CO (centres unmarked) [Example 83]
- Collagen production promoting effect (collagen production amount, % of control group) [1]: + (100 to 200%:+)
- Whitening effect (melanine production suppressing rate) (B16 melanoma 4A5 cell): + (20 to 40%:+)

Compound: O=C1O[C@H]([C@@H](O)CO)C(OCC(O)COc2ccccc2)=C1O (some centres unmarked) [Example 44]
- Collagen production promoting effect (collagen production amount, % of control group) [1]: + (100 to 200%:+)

Compound: C=CCOC1=C(OCC(O)COc2ccccc2)[C@@H]([C@@H](O)CO)OC1=O (some centres unmarked) [Example 55]
- Whitening effect (melanine production suppressing rate) (B16 melanoma 4A5 cell): + (20 to 40%:+)

Compound: CCCCCCCCCCCCOCC(O)COC1=C(OCC(O)COCCCC)C(C(O)CO)OC1=O (centres unmarked) [Example 90]
- Collagen production promoting effect (collagen production amount, % of control group) [1]: + (100 to 200%:+)
- Whitening effect (melanine production suppressing rate) (B16 melanoma 4A5 cell): + (20 to 40%:+)

Compound: CCCCCCCCCCCCCCCCOCC(O)COC1=C(OCCCCCCCC)C(=O)O[C@@H]1[C@@H](O)CO (some centres unmarked) [Example 77]
- Whitening effect (melanine production suppressing rate) (B16 melanoma 4A5 cell): + (20 to 40%:+)

Compound: CCCCCCCCCCCCCCCCOCC(O)COC1=C(OCC(O)CO)C(C(O)CO)OC1=O (centres unmarked) [Example 86]
- Whitening effect (melanine production suppressing rate) (B16 melanoma 4A5 cell): ++ (40 to 70%:++)

Compound: O=C1OC(C(O)CO)C(OCC(O)COc2ccccc2)=C1OCC(O)COc1ccccc1 (centres unmarked) [Example 88, 2,3-di-O-phenylglyceryl ascorbic acid]
- Collagen production promoting effect (collagen production amount, % of control group) [1]: + (100 to 200%:+)
- Whitening effect (melanine production suppressing rate) (B16 melanoma 4A5 cell): ++ (40 to 70%:++)

Compound: CCOC1=C(OCC(O)CO)C(=O)OC1C(O)CO (centres unmarked) [Example 96]
- Whitening effect (melanine production suppressing rate) (B16 melanoma 4A5 cell): + (20 to 40%:+)

Compound: 3-O-dodecylglyceryl-2-O-octylglyceryl ascorbic acid [Example 26]
- Whitening effect (melanine production suppressing rate) (B16 melanoma 4A5 cell): ++ (40 to 70%:++)

Compound: O=C1OC(C(O)CO)C(OCC(O)CO)=C1OCc1ccccc1 (centres unmarked) [Example 17, 3-O-glyceryl-2-O-benzyl ascorbic acid]
- activity at 100 µM [1]: 100 to 200%
- Whitening effect (melanine production suppressing rate) (B16 melanoma 4A5 cell): + (20 to 40%:+)

Compound: CCCCCCCCOCC(O)COC1=C(OCC(O)COCCCCCCCC)C(C(O)CO)OC1=O (centres unmarked) [Example 91]
- Whitening effect (melanine production suppressing rate) (B16 melanoma 4A5 cell): + (20 to 40%:+)

Compound: CCOCC(O)COC1=C(O)C(C(O)CO)OC1=O (centres unmarked) [Example 13, 2-O-ethylglyceryl ascorbic acid]
- Whitening effect (melanine production suppressing rate) (B16 melanoma 4A5 cell): + (20 to 40%:+)

Compound: CCCCCCCCCCCOC1=C(OCC(O)CO)[C@@H]([C@@H](O)CO)OC1=O (some centres unmarked) [Example 62]
- Whitening effect (melanine production suppressing rate) (B16 melanoma 4A5 cell): ++ (40 to 70%:++)

Compound: CCCCCCCCCCCCOC1=C(OCC(O)COCCCC)[C@@H]([C@@H](O)CO)OC1=O (some centres unmarked) [Example 71]
- Whitening effect (melanine production suppressing rate) (B16 melanoma 4A5 cell): + (20 to 40%:+)

Compound: O=C1OC(C(O)CO)C(OC2CCCCC2O)=C1O (centres unmarked) [compound 11, 3-O-(2-hydroxycyclohexyl) ascorbic acid]
- activity at 100 µM [1]: 100 to 200%
- Whitening effect (melanine production suppressing rate) (B16 melanoma 4A5 cell): + (20 to 40%:+)

Compound: CCOCC(O)COC1=C(O)C(=O)OC1C(O)CO (centres unmarked) [Example 7, 3-O-ethylglyceryl ascorbic acid]
- Whitening effect (melanine production suppressing rate) (B16 melanoma 4A5 cell): + (20 to 40%:+)

Compound: CCCCCCCCCCCCCCCCOCC(O)COC1=C(OCC(O)CO)C(=O)OC1C(O)CO (centres unmarked) [Example 82]
- Whitening effect (melanine production suppressing rate) (B16 melanoma 4A5 cell): ++ (40 to 70%:++)

Compound: 3-O-ethylglyceryl-2-O-butyl ascorbic acid [Example 18]
- Collagen production promoting effect (collagen production amount, % of control group) [1]: + (100 to 200%:+)

Compound: CCCCCCCCCOC1=C(OCC(O)CO)[C@@H]([C@@H](O)CO)OC1=O (some centres unmarked) [Example 60]
- Whitening effect (melanine production suppressing rate) (B16 melanoma 4A5 cell): +++ (70 to 100%:+++)

Compound: CCCCCCCCC(O)COC1=C(OCC)C(C(O)CO)OC1=O (centres unmarked) [Example 98]
- Whitening effect (melanine production suppressing rate) (B16 melanoma 4A5 cell): ++ (40 to 70%:++)

Compound: CCCCCCCCCCCCCCOC1=C(OCC(O)CO)[C@@H]([C@@H](O)CO)OC1=O (some centres unmarked) [Example 65, 3-O-glyceryl-2-O-tetradecyl ascorbic acid]
- whitening effect (in words) (B16 melanoma 4A5 cell; conclusion from Tables 38-40, compared with known ascorbic acid derivatives): excellent whitening effect
- Whitening effect (melanine production suppressing rate) (B16 melanoma 4A5 cell): ++ (40 to 70%:++)

Compound: CCCCCCCCOC1=C(OCC(O)COCCCC)[C@@H]([C@@H](O)CO)OC1=O (some centres unmarked) [Example 70]
- Whitening effect (melanine production suppressing rate) (B16 melanoma 4A5 cell): ++ (40 to 70%:++)

Compound: O=C1O[C@H]([C@@H](O)CO)C([O-])=C1O.[Na+] [sodium ascorbate, reference compound]
- Whitening effect (melanine production suppressing rate) (B16 melanoma 4A5 cell): ± (<20%:±)

Compound: OC[C@H]1O[C@@H](Oc2ccc(O)cc2)[C@H](O)[C@@H](O)[C@@H]1O [arbutin]
- Whitening effect (melanine production suppressing rate) (B16 melanoma 4A5 cell): ++ (40 to 70%:++)

Compound: CC=CCOC1=C(OCC(O)COCCCC)[C@@H]([C@@H](O)CO)OC1=O (some centres unmarked) [Example 53]
- Whitening effect (melanine production suppressing rate) (B16 melanoma 4A5 cell): + (20 to 40%:+)

Compound: 3-O-(2-hydroxydecyl)-2-O-butylglyceryl ascorbic acid [Example 28]
- Collagen production promoting effect (collagen production amount, % of control group) [1]: + (100 to 200%:+)
- Whitening effect (melanine production suppressing rate) (B16 melanoma 4A5 cell): ++ (40 to 70%:++)

Compound: CCCCCCCCCCCCOCC(O)COC1=C(OCC(O)CO)C(C(O)CO)OC1=O (centres unmarked) [Example 85]
- Whitening effect (melanine production suppressing rate) (B16 melanoma 4A5 cell): ++ (40 to 70%:++)

Compound: CCCCCCCCCCCCCOC1=C(OCC(O)CO)[C@@H]([C@@H](O)CO)OC1=O (some centres unmarked) [Example 64]
- Whitening effect (melanine production suppressing rate) (B16 melanoma 4A5 cell): ++ (40 to 70%:++)

Compound: CCCCCCOC1=C(OCC(O)CO)[C@@H]([C@@H](O)CO)OC1=O (some centres unmarked) [Example 58]
- Whitening effect (melanine production suppressing rate) (B16 melanoma 4A5 cell): ++ (40 to 70%:++)

Compound: CCCCCCCCCCCCOC1=C(OCC(O)CO)[C@@H]([C@@H](O)CO)OC1=O (some centres unmarked) [Example 63]
- Whitening effect (melanine production suppressing rate) (B16 melanoma 4A5 cell): ++ (40 to 70%:++)

Compound: CCCCCCCCCCCCCCCCOCC(O)COC1=C(OCC(O)COCCCCCCCC)C(C(O)CO)OC1=O (centres unmarked) [Example 92]
- Collagen production promoting effect (collagen production amount, % of control group) [1]: + (100 to 200%:+)
- Whitening effect (melanine production suppressing rate) (B16 melanoma 4A5 cell): ++ (40 to 70%:++)

Compound: CCCCCCCCCCCCCCCCOC1=C(OCC(O)COCCCC)[C@@H]([C@@H](O)CO)OC1=O (some centres unmarked) [Example 72]
- Whitening effect (melanine production suppressing rate) (B16 melanoma 4A5 cell): ++ (40 to 70%:++)

Compound: CCCCCCCCCCCCCCCCOC1=C(OCC(O)CO)[C@@H]([C@@H](O)CO)OC1=O (some centres unmarked) [Example 15, 3-O-glyceryl-2-O-hexadecyl ascorbic acid]
- Whitening effect (melanine production suppressing rate) (B16 melanoma 4A5 cell): ++ (40 to 70%:++)

Compound: CCCCCCOC1=C(OCC(O)COCCCC)[C@@H]([C@@H](O)CO)OC1=O (some centres unmarked) [Example 69]
- Whitening effect (melanine production suppressing rate) (B16 melanoma 4A5 cell): +++ (70 to 100%:+++)

Compound: CCCCCCCCCCOC1=C(OCC(O)CO)[C@@H]([C@@H](O)CO)OC1=O (some centres unmarked) [Example 61]
- Whitening effect (melanine production suppressing rate) (B16 melanoma 4A5 cell): +++ (70 to 100%:+++)

Compound: CCCCCCCOC1=C(OCC(O)CO)[C@@H]([C@@H](O)CO)OC1=O (some centres unmarked) [Example 59]
- Whitening effect (melanine production suppressing rate) (B16 melanoma 4A5 cell): ++ (40 to 70%:++)

Compound: CCCCOCC(O)COC1=C(OCC)C(=O)O[C@@H]1[C@@H](O)CO (some centres unmarked) [Example 68]
- Whitening effect (melanine production suppressing rate) (B16 melanoma 4A5 cell): + (20 to 40%:+)

Compound: O=C1OC(C(O)CO)C(OC(CO)c2ccccc2)=C1O (centres unmarked) [compound 12, 3-O-(2-hydroxy-1-phenylethyl)ascorbic acid]
- Whitening effect (melanine production suppressing rate) (B16 melanoma 4A5 cell): ++ (40 to 70%:++)

Compound: CCCCCCCCC(O)COC1=C(OCCCC)C(=O)O[C@@H]1[C@@H](O)CO (some centres unmarked) [Example 79]
- Whitening effect (melanine production suppressing rate) (B16 melanoma 4A5 cell): +++ (70 to 100%:+++)
